# According to patent US8168193B2, “Molecules, compositions, methods and kits for applications associated with flaviviruses” (National University of Singapore, priority 2003, dated 2012):
# No end group written: not given here.
# How the values were obtained:
# WNV [1] = details: Vero cells, EDTA 3-12 mM, 2 hrs at 37° C.
# [2] = system: 105-kDa cell receptor protein; assay: Virus Overlay Protein Binding Assay (VOPBA) on Vero plasma membrane proteins; details: for West Nile virus binding after removal of papain (VOPBA): Vero cells, papain 50 mU/ml 45 minutes, 0, 2 and 4 hours after removal, with or without cycloheximide 100 μg/ml; for West Nile virus binding to treated membrane proteins of Vero cells (VOPBA): Vero plasma membrane proteins
# West Nile virus [3] = assay: Protease, phospholipase, glycosidase, periodate and lectin pretreatment of Vero cells, then West Nile virus infection, plaque assay; type: cell-based; details: Vero cells pretreated 45 min at 25° C.; for effect of pretreatment of Vero cells on West Nile virus entry/infection: plaque assay at 12 hours p.i.
# Procedure: Cell monolayers (Vero cells or N2A) of approximately 5×10^6 cells were washed twice with phosphate buffer saline (PBS) before enzyme treatment. Cell monolayers were incubated with the proteases and phospholipases, glycosidases and lectins (as listed below) in PBS at a pH of 7.0 for 45 min at 25° C. […] Cell monolayers were then incubated with West Nile virus (MOI=10) at 37° C. for 1 hour. Excess virus particles were inactivated with sodium citrate buffer (pH 2.8) for 10 minutes and the cell monolayer washed twice with PBS. Vero cells were then incubated at 37° C. for 12 hours. At 12 hours p.i., virus titers from the treated samples were determined by plaque assays. Three independent experiments were conducted for each set of enzymes used.
# The enzymes used were; Proteases: Proteinase K (EC 3.4.21.64) from Tritirachium album, concentration of 10 μg/ml, 1 μg/ml & 0.1 μg/ml; α-chymotrypsin (EC 3.4.21.1) from bovine pancreas, concentration of 10 μg/ml & 1 μg/ml; trypsin (EC 3.4.21.4) from bovine pancreas, concentration of 10 μg/ml, 1 μg/ml & 0.1 μg/ml; Bromelain (EC 3.4.22.32) from pineapple stem, concentration of 20 mUnit/ml, 2 mUnit/ml & 0.2 mUnit/ml; Papain (EC 3.4.22.2) from Carica papaya, concentration of 50 mUnit/ml & 10 mUnit/ml. Phospholipases: Phospholipase A2 (EC 3.1.1.4) from bovine pancreas, concentration of 1 UNIT/ml & 0.1 UNIT/ml; Phospholipase C (EC 3.1.1.4.3) from Clostridium perfringes, concentration of 10 UNIT/ml & 1 UNIT/ml; Phospholipase D (EC 3.1.4.4) from peanut, concentration of 100 UNIT/ml & 10 UNIT/ml; Glycosidases: Endoglycosidase H (EC 3.2.1.96) from Streptomyces plicatus, concentration of 100 mUNIT/ml & 10 mUNIT/ml; O-glycosidase (EC3.2.1.97) from Diploccus pneumoniae, concentration of 1 mUNIT/ml & 0.1 mUNIT/ml; α-mannosidase (EC 3.2.1.24) from almonds, concentration of 1000 μ/ml, 100 μg/ml & 10 μg/ml; α-Fucosidase (EC 3.2.1.11) from almond meal, concentration of 100 mUNIT/ml & 10 mUNIT/ml; Heparinase I (EC 4.2.2.7) and Heparinase III (EC 4.2.2.2.8) from Flavobacterium heparinum, concentration of 1 UNIT/ml & 0.1 UNIT/ml. Lectins: Concanavalin-A from Jack bean, wheat germ agglutinin from Triticum vulgaris, phytohemagglutinin from Phaseolus spp., concentration of 1000 μg/ml & 100 μg/ml; Sodium periodate concentration of 1 mM & 0.1 mM. Cell viability after enzyme treatment was assessed by Trypan blue staining and observation under phase contrast microscope BX 60.
# The enzymes or chemicals were used at concentrations known to be effective in reducing the entry of other known viruses (Borrow and Oldstone, 1992; Ramos-Castaneda et al., 1997; Salas-Benito and del Angel, 1997; Martinez-Barragan and del Angel, 2001). Results are expressed as the number of log unit inhibition with respect to untreated samples. At the same time, cell viability after treatments was also assessed by Trypan blue exclusion method.
# [4] = system: 105-kDa cell receptor protein; assay: Virus Overlay Protein Binding Assay (VOPBA) on N2A plasma membrane proteins
# Dengue virus = assay: Competitive inhibition of Dengue virus entry into Vero cells with soluble recombinant WNV envelope DIII; type: cell-based; details: at high concentration used
# Procedure: (§1) Vero cells were first incubated with different concentration (5 to 100 μg/ml) of DIII protein or BSA for 30 min at 37° C. Excess or unbound protein is removed by washing thrice with PBS. Radiolabeled WNV or Dengue virus (250 plaque forming unit, PFU) is added and incubated for 1 h at 37° C. Virus entry into Vero cells was determined by radioactive counts from a scintillation counter.
# WNV [5] = assay: Competitive inhibition of WNV entry into Vero cells with soluble recombinant WNV envelope DIII; type: cell-based, West Nile virus; details: 5 to 100 μg/ml, 30 min at 37° C.
# Procedure: as §1
# West Nile virus [6] = assay: Competitive physiological ligand binding assay, virus entry into Vero cells; type: cell-based; details: Vero cells incubated with ligand 1 hr, then radiolabeled virus 1 hr at 37° C.
# Procedure: Competitive physiological ligand binding assay with fibronectin, vitronectin, heparin, chrondriotin sulphate, laminin and the peptides RGD1 and RGE1 reported in the sequence listing as SEQ ID NO: 6 and SEQ ID NO:7 was carried out. In particular Vero cells were incubated with different concentrations of ECM proteins, RGD peptides, or anti-integrin antibodies at 4° C. or 37° C. for 1 hr, washed, incubated with 50 μl of radiolabeled WNV, JEV at 37° C. for 1 hr and assessed for virus entry.
Molecule,effect of pretreatment of Vero cells on West Nile virus entry/infection (West Nile virus [3]),West Nile virus binding to treated membrane proteins of Vero cells (VOPBA) [2],other results
O=C(O)CN(CCN(CC(=O)O)CC(=O)O)CC(=O)O [EDTA],,,binding and subsequent entry of West Nile virus (WNV [1]): did not block
C[C@@H]1C[C@@H]([C@H](O)CC2CC(=O)NC(=O)C2)C(=O)[C@@H](C)C1 [cycloheximide],,,West Nile virus binding after removal of papain (VOPBA) [2]: virus binding was also observed
[Na+].[O-][I+3]([O-])([O-])[O-] [sodium periodate],substantially reduced,reduced in a dosage-dependent manner,
OCCS [β-mercaptoethanol],,did not disrupt virus binding,West Nile virus binding to treated membrane proteins of N2A cells (VOPBA) [4]: did not disrupt virus binding
Concanavalin-A,prevented the entry,block the binding,
"DIII protein: soluble His-tagged recombinant West Nile virus envelope domain III (350-390), comprising SEQ ID NO: 19 (SIPKLEIAGXFKDL; X: residue not identified in the source)",,,inhibition of entry of Dengue virus into Vero cells (Dengue virus): slightly block; inhibition of entry of WNV into Vero cells (WNV [5]): significantly blocked
Heparinase I,minimal effect,,
Heparinase III,minimal effect,,
O-glycosidase,minimal effect,did not affect,West Nile virus binding to treated membrane proteins of N2A cells (VOPBA) [4]: did not affect
RGD peptide: peptide RGD1 reported in the sequence listing as SEQ ID NO: 6 (RFDS; RGD1 amino acid sequence),,,inhibition of West Nile virus infection by competitive ligands (West Nile virus [6]): partial inhibition
fibronectin,,,inhibition of West Nile virus infection by competitive ligands (West Nile virus [6]): partial inhibition
laminin,,,inhibition of West Nile virus infection by competitive ligands (West Nile virus [6]): partial inhibition
phytohemagglutinin,,no effect,
α-Fucosidase,minimal effect,,
α-mannosidase,significant inhibition,No binding,West Nile virus binding to treated membrane proteins of N2A cells (VOPBA) [4]: No binding
"Papain (protein, UniProt P00784 134-345, looked up, Papain (EC 3.4.22.2) from Carica papaya, a cysteine endopeptidase) Papain: IPEYVDWRQKGAVTPVKNQGSCGSCWAFSAVVTIEGIIKIRTGNLNEYSEQELLDCDRRSYGCNGGYPWSALQLVAQYGIHYRNTYPYEGVQRYCRSREKGPYAAKTDGVRQVQPYNEGALLYSIANQPVSVVLEAAGKDFQLYRGGIFVGPCGNKVDHAVAAVGYGPNYILIKNSWGTGWGENGYIRIKRGTGNSYGVCGLYTSSFYPVKN",,abolished,"log unit inhibition of West Nile virus infection (West Nile virus [3]; virus titers at 12 hours p.i., with respect to untreated samples): ~5 log unit; West Nile virus binding to treated membrane proteins of N2A cells (VOPBA) [4]: abolished; West Nile virus binding after removal of papain (VOPBA) [2]: No virus binding"
"Endoglycosidase H (protein, UniProt P04067 43-313, looked up, Endoglycosidase H (EC 3.2.1.96) from Streptomyces plicatus) Endo-beta-N-acetylglucosaminid …: APAPVKQGPTSVAYVEVNNNSMLNVGKYTLADGGGNAFDVAVIFAANINYDTGTKTAYLHFNENVQRVLDNAVTQIRPLQQQGIKVLLSVLGNHQGAGFANFPSQQAASAFAKQLSDAVAKYGLDGVDFDDEYAEYGNNGTAQPNDSSFVHLVTALRANMPDKIISLYNIGPAASRLSYGGVDVSDKFDYAWNPYYGTWQVPGIALPKAQLSPAAVEIGRTSRSTVADLARRTVDEGYGVYLTYNLDGGDRTADVSAFTRELYGSEAVRTP",significant inhibition,No binding,West Nile virus binding to treated membrane proteins of N2A cells (VOPBA) [4]: No binding
"vitronectin (protein, UniProt P04004 20-478, looked up, ECM protein, physiological ligand for integrin αVβ3) Vitronectin: DQESCKGRCTEGFNVDKKCQCDELCSYYQSCCTDYTAECKPQVTRGDVFTMPEDEYTVYDDGEEKNNATVHEQVGGPSLTSDLQAQSKGNPEQTPVLKPEEEAPAPEVGASKPEGIDSRPETLHPGRPQPPAEEELCSGKPFDAFTDLKNGSLFAFRGQYCYELDEKAVRPGYPKLIRDVWGIEGPIDAAFTRINCQGKTYLFKGSQYWRFEDGVLDPDYPRNISDGFDGIPDNVDAALALPAHSYSGRERVYFFKGKQYWEYQFQHQPSQEECEGSSLSAVFEHFAMMQRDSWEDIFELLFWGRTSAGTRQPQFISRDWHGVPGQVDAAMAGRIYISGMAPRPSLAKKQRFRHRNRKGYRSQRGHSRGRNQNSRRPSRATWLSLFSSEESNLGANNYDDYRMDWLVPATCEPIQSVFFFSGDKYYRVNLRTRRVDTVDPPYPRSIAQYWLGCPAPGHL",,,inhibition of West Nile virus infection by competitive ligands (West Nile virus [6]): partial inhibition
